Measurements as given in US8975263B2, “Phenylxanthene derivatives” (Daiichi Sankyo Company, Limited, priority 2013, dated 2015).

Tested on: C57BL/6J mice
Experiment: Oral glucose tolerance test
Format: in vivo
Details: male C57BL/6J mice, fasted overnight; oral gavage 10 mg/kg; solvent 0.5% MC; glucose 3 g/kg orally 30 minutes after compound; area under the curve of blood glucose level relative to control group
Description: Commercially available mice (C57BL/6J mice; male; 8 to 12 weeks old when used; distributed by Charles River Laboratories Japan, Inc.) were used.
After acclimatization with freely feeding (FR-2, Funabashi Farm Co., Ltd.) for one week or more, the mice were fasted overnight and then used for the test. A 0.5% methylcellulose (Wako Pure Chemical Industries, Ltd.) solution (0.5% MC) containing a test compound at a concentration of 1 mg/ml and a mixed solution (PG:Tween) of propylene glycol (80 v/v %, Nacalai Tesque, Inc.) and Tween 80 (20 v/v %, Nacalai Tesque, Inc.) containing a test compound at a concentration of 2 mg/ml were prepared for administration to the mice. The prepared solution was administered by oral gavage to four or five mice in each group at a dose of 10 mg/kg as the test compound. For a control group, a 0.5% methylcellulose solution (dose: 10 ml/kg) or a mixed solution of propylene glycol and Tween 80 (dose: 5 ml/kg) was orally administered to mice. An oral glucose tolerance test was carried out by administering a glucose solution (Otsuka Glucose Solution 50%; Otsuka Pharmaceutical Factory, Inc.) orally at a dose of 3 g/kg to the mice 30 minutes after administration of the test compound.
Blood was collected from the tail vein of each mouse immediately before administration of the test compound (T0), […] after administration of the test compound (T1), and 30 minutes (T2) and 90 minutes (T3) after oral glucose loading. The blood glucose level was measured using a blood glucose level measuring apparatus (ACCU-CHEK Aviva; Roche Diagnostics, K.K.). The blood glucose level T1 was analyzed as a value obtained 30 minutes after administration of the compound and immediately before glucose loading. According to the following formula, the area under the curve of blood glucose level was calculated, and thereafter, the blood glucose lowering rate (%) was calculated as a value relative to the control group. The area under the curve of blood glucose level=[(blood glucose level T0+blood glucose level T1)×30]÷2+[(blood glucose level T1+blood glucose level T2)×30]÷2+[(blood glucose level T2+blood glucose level T3)×60]÷2 Blood glucose lowering rate(%)=[1−(the area under the curve of blood glucose level for the test compound group/the area under the curve of blood glucose level for the control group)]×100

Compound	Blood glucose lowering rate (%)
COc1ccc(-c2ccnc(CO)n2)c(C)c1C1C2=C(CC(C)(C)CC2=O)OC2=C1C(=O)CC(C)(C)C2 [Example 76, 9-{3-[2-(Hydroxymethyl)pyrimidin-4-yl]-6-methoxy-2-methylphenyl}-3,3,6,6-tetramethyl-3,4,5,6,7,9-hexahydro-1H-xanthene-1,8(2H)-dione]	33%
COc1ccc(-c2cc(C)c(C)c(C(=O)O)n2)c(C)c1C1C2=C(CC(C)(C)CC2=O)OC2=C1C(=O)CC(C)(C)C2 [Example 43, 6-[4-Methoxy-2-methyl-3-(3,3,6,6-tetramethyl-1,8-dioxo-2,3,4,5,6,7,8,9-octahydro-1H-xanthen-9-yl)phenyl]-3,4-dimethylpyridine-2-carboxylic acid]	60%
COc1ccc(-c2ccc(C)c(C(=O)NS(C)(=O)=O)n2)cc1C1C2=C(CC(C)(C)CC2=O)OC2=C1C(=O)CC(C)(C)C2.[K] [Example 35, 6-[4-Methoxy-3-(3,3,6,6-tetramethyl-1,8-dioxo-2,3,4,5,6,7,8,9-octahydro-1H-xanthen-9-yl)phenyl]-3-methyl-N-(methylsulfonyl)pyridine-2-carboxamide potassium salt]	52%
CNc1ccc(-c2ccc(OC)c(C3C4=C(CC(C)(C)CC4=O)OC4=C3C(=O)CC(C)(C)C4)c2C)nc1C(=O)NS(C)(=O)=O [Example 54, 6-[4-Methoxy-2-methyl-3-(3,3,6,6-tetramethyl-1,8-dioxo-2,3,4,5,6,7,8,9-octahydro-1H-xanthen-9-yl)phenyl]-3-(methylamino)-N-(methylsulfonyl)pyridine-2-carboxamide]	49%
COc1ccc(-c2ccc(C)c(C(=O)NS(C)(=O)=O)n2)c(C)c1C1C2=C(CC(C)(C)CC2=O)OC2=C1C(=O)CC(C)(C)C2.[Na] [Example 19, 6-[4-Methoxy-2-methyl-3-(3,3,6,6-tetramethyl-1,8-dioxo-2,3,4,5,6,7,8,9-octahydro-1H-xanthen-9-yl)phenyl]-3-methyl-N-(methylsulfonyl)pyridine-2-carboxamide sodium salt]	40%
COc1ccc(-c2cc(C)c(C)c(C(=O)NS(C)(=O)=O)n2)c(C)c1C1C2=C(CC(C)(C)CC2=O)OC2=C1C(=O)CC(C)(C)C2 [Example 44, 6-[4-Methoxy-2-methyl-3-(3,3,6,6-tetramethyl-1,8-dioxo-2,3,4,5,6,7,8,9-octahydro-1H-xanthen-9-yl)phenyl]-3,4-dimethyl-N-(methylsulfonyl)pyridine-2-carboxamide]	44%
COc1ccc(-c2ccc(N)c(C(=O)O)n2)cc1C1C2=C(CC(C)(C)CC2=O)OC2=C1C(=O)CC(C)(C)C2 [Example 51, 3-Amino-6-[4-methoxy-3-(3,3,6,6-tetramethyl-1,8-dioxo-2,3,4,5,6,7,8,9-octahydro-1H-xanthen-9-yl)phenyl]pyridine-2-carboxylic acid]	39%
COc1ccc(-c2ccc(N)c(C(=O)NS(C)(=O)=O)n2)cc1C1C2=C(CC(C)(C)CC2=O)OC2=C1C(=O)CC(C)(C)C2 [Example 52, 3-Amino-6-[4-methoxy-3-(3,3,6,6-tetramethyl-1,8-dioxo-2,3,4,5,6,7,8,9-octahydro-1H-xanthen-9-yl)phenyl]-N-(methylsulfonyl)pyridine-2-carboxamide]	44%
CCc1ccc(-c2ccc(OC)c(C3C4=C(CC(C)(C)CC4=O)OC4=C3C(=O)CC(C)(C)C4)c2C)nc1C(=O)NS(C)(=O)=O [Example 17, 3-Ethyl-6-[4-methoxy-2-methyl-3-(3,3,6,6-tetramethyl-1,8-dioxo-2,3,4,5,6,7,8,9-octahydro-1H-xanthen-9-yl)phenyl]-N-(methylsulfonyl)pyridine-2-carboxamide]	43%
CCc1ccc(-c2ccc(OC)c(C3C4=C(CC(C)(C)CC4=O)OC4=C3C(=O)CC(C)(C)C4)c2)nc1C(=O)O [Example 45, 3-Ethyl-6-[4-methoxy-3-(3,3,6,6-tetramethyl-1,8-dioxo-2,3,4,5,6,7,8,9-octahydro-1H-xanthen-9-yl)phenyl]pyridine-2-carboxylic acid]	42%
COc1ccc(-c2cccc(C(=O)NS(C)(=O)=O)n2)c(C)c1C1C2=C(CC(C)(C)CC2=O)OC2=C1C(=O)CC(C)(C)C2.[K] [Example 14, 6-[4-Methoxy-2-methyl-3-(3,3,6,6-tetramethyl-1,8-dioxo-2,3,4,5,6,7,8,9-octahydro-1H-xanthen-9-yl)phenyl]-N-(methylsulfonyl)pyridine-2-carboxamide potassium salt]	46%
CNc1ccc(-c2ccc(OC)c(C3C4=C(CC(C)(C)CC4=O)OC4=C3C(=O)CC(C)(C)C4)c2C)nc1C(=O)O [Example 53, 6-[4-Methoxy-2-methyl-3-(3,3,6,6-tetramethyl-1,8-dioxo-2,3,4,5,6,7,8,9-octahydro-1H-xanthen-9-yl)phenyl]-3-(methylamino)pyridine-2-carboxylic acid]	64%

Same assay, conditions: male C57BL/6J mice, fasted overnight; oral gavage 10 mg/kg; solvent PG:Tween; glucose 3 g/kg orally 30 minutes after compound; area under the curve of blood glucose level relative to control group

Compound	Blood glucose lowering rate (%)
COc1ccc(-c2ccc(OC)c(C3C4=C(CC(C)(C)CC4=O)OC4=C3C(=O)CC(C)(C)C4)c2C)nc1C(=O)O [Example 23, 3-Methoxy-6-[4-methoxy-2-methyl-3-(3,3,6,6-tetramethyl-1,8-dioxo-2,3,4,5,6,7,8,9-octahydro-1H-xanthen-9-yl)phenyl]pyridine-2-carboxylic acid]	46%
COc1ccc(-c2ccnc(C(N)=O)n2)c(C)c1C1C2=C(CC(C)(C)CC2=O)OC2=C1C(=O)CC(C)(C)C2 [Example 75, 4-[4-Methoxy-2-methyl-3-(3,3,6,6-tetramethyl-1,8-dioxo-2,3,4,5,6,7,8,9-octahydro-1H-xanthen-9-yl)phenyl]pyrimidine-2-carboxylic acid amide]	35%
COc1ccc(-c2ccc(O)c(C(=O)O)n2)c(C)c1C1C2=C(CC(C)(C)CC2=O)OC2=C1C(=O)CC(C)(C)C2 [Example 11, 3-Hydroxy-6-[4-methoxy-2-methyl-3-(3,3,6,6-tetramethyl-1,8-dioxo-2,3,4,5,6,7,8,9-octahydro-1H-xanthen-9-yl)phenyl]pyridine-2-carboxylic acid]	42%
COc1ccc(-c2cccc(C(=O)O)n2)cc1C1C2=C(CC(C)(C)CC2=O)OC2=C1C(=O)CC(C)(C)C2 [Example 1, 6-[4-Methoxy-3-(3,3,6,6-tetramethyl-1,8-dioxo-2,3,4,5,6,7,8,9-octahydro-1H-xanthen-9-yl)phenyl]pyridine-2-carboxylic acid]	39%
COc1ccc(-c2cccc(-c3noc(=O)[nH]3)n2)cc1C1C2=C(CC(C)(C)CC2=O)OC2=C1C(=O)CC(C)(C)C2 [Example 8, 9-{2-Methoxy-5-[6-(5-oxo-4,5-dihydro-1,2,4-oxadiazol-3-yl)pyridin-2-yl]phenyl}-3,3,6,6-tetramethyl-3,4,5,6,7,9-hexahydro-1H-xanthene-1,8(2H)-dione]	38%
COc1ccc(-c2cccc(C(=O)O)n2)c(C)c1C1C2=C(CC(C)(C)CC2=O)OC2=C1C(=O)CC(C)(C)C2 [Example 4, 6-[4-Methoxy-2-methyl-3-(3,3,6,6-tetramethyl-1,8-dioxo-2,3,4,5,6,7,8,9-octahydro-1H-xanthen-9-yl)phenyl]pyridine-2-carboxylic acid]	60%
